How the values were obtained:
Type in all cases: functional
[1] = test system: Onchocerca lienalis; assay: MMV: Percent motility assay at a compound concentration of 1.25e-5 M. Activity score legend: 3: Active, 2: Moderately active; 1: Inactive, 0: Toxic; conditions: at 12.5 µM
[2] = test system: Onchocerca lienalis; assay: MMV: Percent motility assay at a compound concentration of 3.1e-6 M. Activity score legend: 3: Active, 2: Moderately active; 1: Inactive, 0: Toxic; conditions: at 3.1 µM
[3] = test system: Onchocerca lienalis; assay: MMV: Percent motility assay at a compound concentration of 1.9e-7 M. Activity score legend: 3: Active, 2: Moderately active; 1: Inactive, 0: Toxic; conditions: at 0.19 µM
[4] = test system: Onchocerca lienalis; assay: MMV: Percent motility assay at a compound concentration of 7.8e-7 M. Activity score legend: 3: Active, 2: Moderately active; 1: Inactive, 0: Toxic; conditions: at 0.78 µM

`CCOC(=O)C1=C(C)N=c2sc(=Cc3ccccc3O)c(=O)n2C1c1ccc(OC)c2ccccc12` (configuration not stated) gave a Motility [1] of 100%, a Motility [2] of 100% and a Motility [3] of 100%. It also gave a Motility [4] of 100%.
`FC(F)(F)c1cccc(Nc2nc3ccccc3nc2Nc2cccc(C(F)(F)F)c2)c1` showed a Motility [1] of 100%, a Motility [2] of 100% and a Motility [3] of 100%. The Motility [4] was 100%.
`O=C(NC1CCCCC1)C(c1cccs1)N(CCc1ccccc1)C(=O)c1ccco1` (configuration not stated) was tested, and the Motility [1] was 100%, the Motility [2] was 100% and the Motility [3] was 100%. For the same molecule, the Motility [4] was 100%.
With `Cl.c1ccc2c(NCCCCCCNc3c4c(nc5ccccc35)CCCC4)c3c(nc2c1)CCCC3` the Motility [1] was 100%, the Motility [2] was 100% and the Motility [3] was 100%. The Motility [4] was 100%.
`Cc1ccnc(NC(c2cccc(OCc3ccccc3)c2)c2ccc3cccnc3c2O)c1` (configuration not stated) was tested, and the Motility [1] was 100%, the Motility [2] was 100% and the Motility [3] was 100%. For the same molecule, the Motility [4] was 100%.
In the case of `Nc1ccc(-c2nc3cc(Cc4ccc5[nH]c(-c6ccc(N)cc6)nc5c4)ccc3[nH]2)cc1`, the Motility [1] was 0%, the Motility [2] was 66.66% and the Motility [3] was 100%. The Motility [4] was 100%.
In the case of `CCCCOC(=O)c1ccc(Nc2cc(C)nc3ccc(OC)cc23)cc1`, the Motility [1] was 100%, the Motility [2] was 100% and the Motility [3] was 100%. For the same molecule, the Motility [4] was 100%.
`O=c1cc(NC2CCN(CCCc3ccccc3)CC2)c2cc(Cl)ccc2o1` was tested, and the Motility [1] was 100%, the Motility [2] was 100% and the Motility [3] was 100%. It also gave a Motility [4] of 100%.
`COc1ccc(C2NCCc3c2[nH]c2ccccc32)cc1CN1CCN(c2ccc(F)cc2)CC1.Cl` (configuration not stated) showed a Motility [1] of 100%, a Motility [2] of 100% and a Motility [3] of 100%. For the same molecule, the Motility [4] was 100%.
`CCOc1ccc(-n2cc(-c3ccccc3)c3c(SCc4cc(C)ccc4C)ncnc32)cc1` was tested, and the Motility [1] was 100%, the Motility [2] was 100% and the Motility [3] was 100%. For the same molecule, the Motility [4] was 100%.
`Cc1ccc(C)c(Cn2c(N3CCC(C(=O)NCc4cccs4)CC3)nc3ccccc32)c1` showed a Motility [1] of 100%, a Motility [2] of 100% and a Motility [3] of 100%. It also gave a Motility [4] of 100%.
Work on `CC1CCN(Cc2c(O)ccc3cc(-c4nc5ccccc5s4)c(=O)oc23)CC1` yielded a Motility [1] of 100%, a Motility [2] of 100% and a Motility [3] of 100%. For the same molecule, the Motility [4] was 100%.
With `Cc1ccc2cc3c(N)c4c(C)ccc(C)c4nc3nc2c1` the Motility [1] was 100%, the Motility [2] was 100% and the Motility [3] was 100%. It also gave a Motility [4] of 100%.
Molecule `CC(C)CCNCC(O)Cn1c2ccccc2c2ccccc21.Cl` (configuration not stated) has a Motility [1] of 100%, a Motility [2] of 100% and a Motility [3] of 100%. The Motility [4] was 100%.
`COc1ccc(C2C(C(=O)Nc3cccc(OC)c3)c3ccccc3C(=O)N2C2CCCCC2)cc1` (configuration not stated) was tested, and the Motility [1] was 100%, the Motility [2] was 100% and the Motility [3] was 100%. It also gave a Motility [4] of 100%.
For `c1ccc2c(NCCc3c[nH]c4ccccc34)c3ccccc3nc2c1`, the Motility [1] was 100%, the Motility [2] was 100% and the Motility [3] was 100%. It also gave a Motility [4] of 100%.
Work on `O=C(Nc1ccc(C23CC4CC(CC(c5ccccc5)(C4)C2)C3)cc1)c1cccs1` yielded a Motility [1] of 100%, a Motility [2] of 100% and a Motility [3] of 100%. It also gave a Motility [4] of 100%.
`CCN(CC)CCCNc1ccnc2cc3ccccc3cc12` showed a Motility [1] of 100%, a Motility [2] of 100% and a Motility [3] of 100%. For the same molecule, the Motility [4] was 100%.
Work on `CCOC(=O)c1cnc2c(C)cccc2c1Nc1ccc(C(C)=O)cc1` yielded a Motility [1] of 100%, a Motility [2] of 100% and a Motility [3] of 100%. For the same molecule, the Motility [4] was 100%.
`O=C(Nc1ccc(-c2nc3cc4ccccc4cc3[nH]2)cc1)c1cccc(Br)c1` showed a Motility [1] of 100%, a Motility [2] of 100% and a Motility [3] of 100%. For the same molecule, the Motility [4] was 100%.
Molecule `Cc1ccc(C2CC(C(F)(F)F)n3nc(C(=O)N4CCN(C(c5ccccc5)c5ccccc5)CC4)cc3N2)cc1` (configuration not stated) has a Motility [1] of 100%, a Motility [2] of 100% and a Motility [3] of 100%. It also gave a Motility [4] of 100%.
Work on `Cc1ccc2nc(C)cc(Nc3cccc(C(F)(F)F)c3)c2c1.Cl` yielded a Motility [1] of 100%, a Motility [2] of 100% and a Motility [3] of 100%. The Motility [4] was 100%.
`COc1cccc(C(=O)NC(c2ccc(C)cc2)c2cc(Cl)c3cccnc3c2O)c1` (configuration not stated) was tested, and the Motility [1] was 0%, the Motility [2] was 33.33% and the Motility [3] was 100%. The Motility [4] was 100%.
For `COc1ccc(-c2cc(=O)oc3c4c(ccc23)OCN(Cc2ccc(F)cc2)C4)cc1`, the Motility [1] was 100%, the Motility [2] was 100% and the Motility [3] was 100%. The Motility [4] was 100%.
Molecule `CCCOCc1cc(CN2CCN(c3cccc(Cl)c3)CC2)c(O)c2ncccc12` has a Motility [1] of 100%, a Motility [2] of 100% and a Motility [3] of 100%. The Motility [4] was 100%.
`CCOc1ccc2c(c1)CN(Cc1ccc(Cl)cc1)CO2` was tested, and the Motility [1] was 100%, the Motility [2] was 100% and the Motility [3] was 100%. It also gave a Motility [4] of 100%.
With `CCCCC(O)(c1ccc(Cl)cc1)C(CN1CCOCC1)c1ccc(Cl)cc1.Cl` (configuration not stated) the Motility [1] was 100%, the Motility [2] was 100% and the Motility [3] was 100%. The Motility [4] was 100%.
`COc1ccc(C(=O)NC(c2ccccc2Cl)c2cc(Cl)c3cccnc3c2O)cc1` (configuration not stated) showed a Motility [1] of 100%, a Motility [2] of 100% and a Motility [3] of 100%. The Motility [4] was 100%.
`Cc1cc(=O)oc2c1ccc1oc(C(=O)c3ccccc3)c(C)c12` showed a Motility [1] of 100%, a Motility [2] of 100% and a Motility [3] of 100%. The Motility [4] was 100%.
`COc1ccc2c(c1OC)C(=O)N1c3ccccc3N=C(c3ccc(C)cc3)CC21` (configuration not stated) was tested, and the Motility [1] was 100%, the Motility [2] was 100% and the Motility [3] was 100%. The Motility [4] was 100%.
For `CCCCCCc1cc(O)c2c3c(c(=O)oc2c1)CCC(C)C3` (configuration not stated), the Motility [1] was 100%, the Motility [2] was 100% and the Motility [3] was 100%. The Motility [4] was 100%.
With `CCCc1c(C)nc2ccc(Br)cc2c1O` the Motility [1] was 100%, the Motility [2] was 100% and the Motility [3] was 100%. For the same molecule, the Motility [4] was 100%.
With `COc1ccc(CCNC(=O)c2cc(S(=O)(=O)N3CC(C)CC(C)C3)ccc2Sc2ccc(F)cc2)cc1OC` (configuration not stated) the Motility [1] was 100%, the Motility [2] was 100% and the Motility [3] was 100%. It also gave a Motility [4] of 100%.
For `CCOc1ccc(Nc2c3ccccc3nc3ccccc23)cc1.Cl`, the Motility [1] was 100%, the Motility [2] was 100% and the Motility [3] was 100%. It also gave a Motility [4] of 100%.
Molecule `CC1=C(CC(=O)c2cccc([N+](=O)[O-])c2)C(=O)c2ccccc2C1=O` has a Motility [1] of 100%, a Motility [2] of 100% and a Motility [3] of 100%. It also gave a Motility [4] of 100%.
In the case of `CCCCCCC(O)(c1ccc(F)cc1)C(CN1CCOCC1)c1ccccc1.Cl` (configuration not stated), the Motility [1] was 100%, the Motility [2] was 100% and the Motility [3] was 100%. For the same molecule, the Motility [4] was 100%.
In the case of `COc1cc(OC)cc(N2C(=O)N(Cc3ccc(C(C)(C)C)cc3)c3ccccc3S2(=O)=O)c1`, the Motility [1] was 33.33%, the Motility [2] was 100% and the Motility [3] was 100%. It also gave a Motility [4] of 100%.
Work on `COc1ccccc1N1C(=N)SC(=Cc2ccc(OCc3ccccc3F)cc2)C1=O` yielded a Motility [1] of 100%, a Motility [2] of 100% and a Motility [3] of 100%. It also gave a Motility [4] of 100%.
